Like-named read-outs stand apart in the source and are kept apart here.
How the values were obtained:
[1] = tested on: VRE clinical isolate S557; assay: organism not typed; assay type: cell-based, E. faecium; conditions: read-out: MIC
[2] = tested on: MRSA clinical isolate SAU.709; assay: microbe, parasite or virus in culture; assay type: cell-based, S. aureus; conditions: Staphylococcus aureus, read-out: MIC
Procedure: (§1) Susceptibility testing was performed in triplicate using the microdilution broth method as outlined by the Clinical and Laboratory Standards Institute CLSI^52. MH broth was used.

[3] = tested on: MRSA clinical isolate SAU.710; assay: microbe, parasite or virus in culture; assay type: cell-based, S. aureus; conditions: Staphylococcus aureus, read-out: MIC
Procedure: as §1

[4] = tested on: MRSA clinical isolate SAU.493; assay: microbe, parasite or virus in culture; assay type: cell-based, S. aureus; conditions: Staphylococcus aureus, read-out: MIC
Procedure: as §1

[5] = tested on: MRSA clinical isolate SAU.495; assay: microbe, parasite or virus in culture; assay type: cell-based, S. aureus; conditions: Staphylococcus aureus, read-out: MIC
Procedure: as §1

[6] = tested on: MRSA clinical isolate SAU.708; assay: microbe, parasite or virus in culture; assay type: cell-based, S. aureus; conditions: Staphylococcus aureus, read-out: MIC
Procedure: as §1

[7] = tested on: MRSA clinical isolate SAU.494; assay: microbe, parasite or virus in culture; assay type: cell-based, S. aureus; conditions: Staphylococcus aureus, read-out: MIC
Procedure: as §1

[8] = tested on: MRSA clinical isolate SAU.489; assay: microbe, parasite or virus in culture; assay type: cell-based, S. aureus; conditions: Staphylococcus aureus, read-out: MIC
Procedure: as §1

[9] = tested on: MRSA clinical isolate SAU.491; assay: microbe, parasite or virus in culture; assay type: cell-based, S. aureus; conditions: Staphylococcus aureus, read-out: MIC
Procedure: as §1

[10] = tested on: MRSA clinical isolate SAU.496; assay: microbe, parasite or virus in culture; assay type: cell-based, S. aureus; conditions: Staphylococcus aureus, read-out: MIC
Procedure: as §1

[11] = tested on: MRSA clinical isolate SAU.3026; assay: MIC, microdilution broth; assay type: cell-based, S. aureus
Procedure: as §1

[12] = tested on: MRSA clinical isolate SAU.419; assay: MIC, microdilution broth; assay type: cell-based, S. aureus
Procedure: as §1

[13] = tested on: MRSA clinical isolate SAU.3021; assay: MIC, microdilution broth; assay type: cell-based, S. aureus
Procedure: as §1

[14] = tested on: MRSA clinical isolate SAU.555; assay: MIC, microdilution broth; assay type: cell-based, S. aureus; conditions: Staphylococcus aureus
Procedure: as §1

Enterococcus ATCC 19433 = assay: organism not typed; assay type: cell-based, E. faecalis; conditions: ATCC 19433, E. faecalis; gyrA WT, parC WT; read-out: MIC
A. baumannii ATCC 19606 = assay: microbe, parasite or virus in culture; assay type: cell-based; conditions: Acinetobacter baumannii, ATCC19606, gyrA none, parC none
Procedure: (§2) E. coli MG1655 and the ΔAcrB strain were obtained from Prof. Cari Vanderpool at UIUC.
as §1

P. aeruginosa PAO1 = assay: microbe, parasite or virus in culture; assay type: cell-based; conditions: Pseudomonas aeruginosa, gyrA none, parC none
Procedure: as §2, §1

E. coli ATCC 25922 = assay: microbe, parasite or virus in culture; assay type: cell-based; conditions: Escherichia coli, ATCC25922, gyrA none, parC none
Procedure: as §2, §1

MRSA clinical isolates = assay: Panel of MRSA clinical isolates (FIG. 2A); assay type: cell-based, S. aureus; conditions: n=21, in words
A. baumannii KB349 = assay: MIC, microdilution broth; assay type: cell-based; conditions: Acinetobacter baumannii
Procedure: as §2, §1

A. baumannii KB304 = assay: MIC, microdilution broth; assay type: cell-based; conditions: Acinetobacter baumannii
Procedure: as §2, §1

[15] = tested on: VRE clinical isolate S234; assay: organism not typed; assay type: cell-based, E. faecalis; conditions: read-out: MIC
physchem [16] = conditions: organic solvent or mixture, thermodynamic from solid
VRE clinical isolate D1 = assay: organism not typed; assay type: cell-based, E. faecium; conditions: read-out: MIC
[17] = tested on: VRE clinical isolate U563; assay: organism not typed; assay type: cell-based, E. faecium
Procedure: (§3) QRDR mutations were determined as described in the text using primers (primer sequences can be found in Table 7).
as §1

[18] = tested on: VRE clinical isolate S226; assay: organism not typed; assay type: cell-based, E. faecium
Procedure: as §3, §1

VRE clinical isolate U63 = assay: organism not typed; assay type: cell-based, E. faecium
Procedure: as §3, §1

[19] = tested on: VRE clinical isolate U503; assay: organism not typed; assay type: cell-based, E. faecium
Procedure: as §3, §1

[20] = tested on: VRE clinical isolate C21190; assay: organism not typed; assay type: cell-based, E. faecium
Procedure: as §3, §1

[21] = tested on: VRE clinical isolate U275; assay: organism not typed; assay type: cell-based, E. faecium
Procedure: as §3, §1

[22] = tested on: VRE clinical isolate C27282; assay: organism not typed; assay type: cell-based, E. faecium
Procedure: as §3, §1

VRE clinical isolate S51 = assay: organism not typed; assay type: cell-based, E. faecium
Procedure: as §3, §1

VRE clinical isolate S34 = assay: organism not typed; assay type: cell-based, E. faecium
Procedure: as §3, §1

[23] = tested on: VRE clinical isolate U464; assay: organism not typed; assay type: cell-based, E. faecium
Procedure: as §3, §1

[24] = tested on: VRE clinical isolate S235; assay: organism not typed; assay type: cell-based, E. faecium
Procedure: as §3, §1

[25] = tested on: VRE clinical isolate C28036; assay: microbe, parasite or virus in culture; assay type: cell-based, Ent. Spp.; conditions: Enterococcus
Procedure: as §3, §1

physchem [26] = conditions: pH 7.4 PBS; three replicates ± SEM
Procedure: Enough PBS was added to make a 1 mg/mL solution. Compounds were then assessed by LC-MS and compared to a calibration curve to determine the solubility. […] Data shown is from three independent replicates±SEM. […] Between DMSO additions, the vial was vortexed and sonicated.
The compound was vortexed for ˜30 seconds before being placed into a bath sonicator (Cole Parmer, ultrasonic cleaner) for 1 h. […] The tubes were vortexed again for 30 s before being centrifuged at maximum speed (13,000×g) for 10 minutes. The supernatant was then filtered through a 0.22 μm syringe filter (Millipore Millex MP). […] Three independent replicates of each compound were performed. A calibration curve for each compound was generated from 1-400 μM by dissolving the compound in DMSO and making dilutions of the stock in DMSO. […] The concentration of the samples was calculated based on the calibration curves.

PA1586 = assay: MIC, microdilution broth; assay type: cell-based, P. aeruginosa; conditions: Pseudomonas aeruginosa
Procedure: as §2, §1

Enterococcus ATCC 29212 = assay: organism not typed; assay type: cell-based, E. faecalis; conditions: ATCC 29212, E. faecalis; gyrA WT, parC WT; read-out: MIC
[27] = tested on: S. aureus 29213 (WT GyrA and WT ParC); assay: microbe, parasite or virus in culture; assay type: cell-based; conditions: Staphylococcus aureus; WT GyrA and WT ParC; read-out: MIC against S. aureus 29213
Procedure: as §1

VRE clinical isolates = assay: Panel of VRE clinical isolates (FIG. 2B); assay type: cell-based, Enterococcus; conditions: n=22, in words
[28] = tested on: VRE clinical isolate S206; assay: organism not typed; assay type: cell-based, E. faecalis
Procedure: as §3, §1

[29] = tested on: MRSA clinical isolate SAU.492; assay: microbe, parasite or virus in culture; assay type: cell-based, S. aureus; conditions: Staphylococcus aureus, read-out: MIC
Procedure: as §1

[30] = tested on: MRSA clinical isolate SAU.42; assay: MIC, microdilution broth; assay type: cell-based, S. aureus; conditions: Staphylococcus aureus
Procedure: as §1

[31] = tested on: MRSA clinical isolate SAU.446; assay: MIC, microdilution broth; assay type: cell-based, S. aureus; conditions: Staphylococcus aureus
Procedure: as §1

[32] = tested on: MRSA clinical isolate SAU.669; assay: MIC, microdilution broth; assay type: cell-based, S. aureus; conditions: Staphylococcus aureus
Procedure: as §1

[33] = tested on: MRSA clinical isolate SAU.3024; assay: MIC, microdilution broth; assay type: cell-based, S. aureus; conditions: Staphylococcus aureus
Procedure: as §1

[34] = tested on: MRSA clinical isolate SAU.1118; assay: MIC, microdilution broth; assay type: cell-based, S. aureus; conditions: Staphylococcus aureus
Procedure: as §1

[35] = tested on: MRSA clinical isolate SAU.447; assay: MIC, microdilution broth; assay type: cell-based, S. aureus; conditions: Staphylococcus aureus
Procedure: as §1

[36] = tested on: MRSA clinical isolate SAU.3025; assay: MIC, microdilution broth; assay type: cell-based, S. aureus; conditions: Staphylococcus aureus
Procedure: as §1

[37] = tested on: MRSA clinical isolate SAU.2996; assay: MIC, microdilution broth; assay type: cell-based, S. aureus
Procedure: as §1

[38] = tested on: MRSA clinical isolate SAU.846; assay: MIC, microdilution broth; assay type: cell-based, S. aureus
Procedure: as §1

[39] = tested on: MRSA clinical isolate SAU.3017
Procedure: as §1

[40] = Staphylococcus aureus, MRSA, read-out: MIC

CCCn1c(=O)cc(C)c2cc3c(C)cc(=O)n4c3c(c21)OC4 [DNM-8]
0.5 µg/mL: MIC [1] | MIC [9] | MIC [14] | MIC [15] | MIC (VRE clinical isolate D1)
11.3 mM: solubility (physchem [16])
2 µg/mL: MIC (VRE clinical isolate S34) | MIC [23]
1 µg/mL: MIC [6] | MIC [18] | MIC (VRE clinical isolate S51) | MIC [24] | MIC [25]
16 µg/mL: MIC (Enterococcus ATCC 19433) | MIC [27]
> 32 µg/mL: MIC (A. baumannii ATCC 19606) | MIC (P. aeruginosa PAO1) | MIC (E. coli ATCC 25922) | MIC (A. baumannii KB349) | MIC (A. baumannii KB304) | MIC (PA1586)
sensitive: sensitivity of MRSA clinical isolates (MRSA clinical isolates) | sensitivity of VRE clinical isolates (VRE clinical isolates)
8 µg/mL: MIC [20] | MIC [22] | MIC (Enterococcus ATCC 29212)
0.25 µg/mL: MIC [2] | MIC [4] | MIC [5] | MIC [7] | MIC [8] | MIC [10] | MIC [11, 40] | MIC [12, 40]
0.125 µg/mL: MIC [3] | MIC [13, 40]
4 µg/mL: MIC [17] | MIC (VRE clinical isolate U63) | MIC [19] | MIC [21] | MIC [28]
68 μM: Solubility in pH 7.4 PBS (physchem [26])

CC1(C)S[C@@H]2[C@H](NC(=O)[C@H](N)c3ccccc3)C(=O)N2[C@H]1C(=O)O [Amp, Ampicillin, reference compound]
>64 µg/mL: MIC [11] | MIC [12] | MIC [13] | MIC [37] | MIC [38] | MIC [39]
> 64 µg/mL: MIC [2] | MIC [3] | MIC [29] | MIC [4] | MIC [5] | MIC [7] | MIC [8] | MIC [9] | MIC [10] | MIC [31] | MIC [32] | MIC [33] | MIC [34] | MIC [35] | MIC [14]
64 µg/mL: MIC [36]
2 µg/mL: MIC [30]
